Consider one sequence from US20250281378A1, “PEPTIDE HAVING ACTIVITY OF PREVENTING HAIR LOSS OR PROMOTING HAIR GROWTH AND USE THEREOF” (CAREGEN CO., LTD., priority 2021, published 2025).

For one assay, the system named is Keratin 14. Description: RT-PCR of Keratin 14 expression in HHORSC. The settings on record: peptide 500 nM, 5 μM, and 50 μM, 72 hours, vs control group without treatment, FIG. 6. Format: cell-based, human. How it is done:
(§1) Specifically, HHORSC (human hair outer root sheath cell, Sciencell, USA) was seeded in a 6-well culture plate at 4×10^5 cells/well and then cultured in MSC complete medium (mesenchymal stem cell complete media) for 24 hours. Next, the medium was replaced with serum free MSC complete medium and cultured again for 24 hours. Then, the HHORSC was treated with the peptide of Preparation Example consisting of amino acid sequence of SEQ ID NO: 1 at concentrations of 500 nM, 5 μM, and 50 μM, respectively, and cultured at 37° C. for 72 hours. As a positive control, EGF was treated at a concentration of 50 nM, and as a negative control, HHORSC without any treatment was used. After washing with PBS, RNA was isolated by treating with 300 ? of easy blue (intron, Korea). Then, CDNA was synthesized using a cDNA synthesis kit (enzynomics, Korea) by quantification using nano drop, and PCR was performed using primers for Keratin 14 and Keratin 19 (base sequences of each primer are listed in Table 3 below) and PCR premix (enzynomics, Korea). Electrophoresis was performed on a 1.5% agarose gel, and the mRNAs of Keratin 14 and Keratin 19 were detected using a band analysis system (Bio-Rad gel image system).

A further assay relates to DKK-1 protein. Description: Western blotting of DKK-1 protein in DHT-treated HHFDPC. Format: cell-based, human. The settings on record: HHFDPC with DHT 100 nM, peptide 500 nM, 5 μM, and 50 μM, 24 hours, vs negative control (DHT only), FIG. 5. The method, then: DKK-1 protein (dickkopf-related protein 1) is a hair loss-related protein known to be highly expressed in individuals with hair loss, especially male pattern hair loss, and its expression is known to be promoted by hormones such as DHT (Dihydrotestosterone). Accordingly, the expression of DKK-1 protein was induced by treating HHFDPC cells with DHT together with the peptide according to the Preparation Example of the present invention, and then the expression level of DKK-1 was measured through Western blotting to determine whether there was an effect of suppressing the expression of DKK-1 protein.
Specifically, as in [Experiment Example 1-1] above, HHFDPC was seeded in a 6-well culture plate at 4×10^5 cells/well and then cultured in MSC complete medium (mesenchymal stem cell complete media) for 24 hours. Next, the medium was replaced with serum free MSC complete medium and cultured again for 24 hours. […] After washing again with 0.1% PBS-T (0.1% Tween-20 in PBS) three times for 15 minutes each, DKK-1 protein was detected by treatment with ECL solution (GE Healthcare, USA).
(In general: Immunoblotting shows a protein as a band on a membrane.)

Assay [1] has as its system human hair follicle dermal papilla cells (HHFDPC). Description: Proliferation of dermal papilla cells (MTT, absorbance at 540 nm). Format: cell-based. The note with it: peptide 500 nM, 5 μM, and 50 μM, 72 hours, compared to the untreated control group, FIG. 1. The method, then: While culturing human hair follicle dermal dermal papilla cells (HHFDPC), the absorbance was measured after treatment with the peptide of the present invention to confirm whether there was an effect of promoting the proliferation of the HHFDPC dermal papilla cells.
Specifically, HHFDPC (Sciencell, USA) was seeded at 4×10^3 cells/well in a 96-well culture plate, cultured in MSC complete medium (mesenchymal stem cell complete media, Sciencell, USA) for 24 hours, and then the medium was replaced with serum free MSC complete medium and cultured for another 24 hours. Then, the HHFDPC was treated with the peptide of SEQ ID NO: 1 prepared in the Preparation Example at concentrations of 500 nM, 5 μM, and 50 μM, respectively, and cultured at 37° C. for 72 hours. As a positive control, minoxidil was treated at a concentration of 1 μM, and as a negative control, HHFDPC without any treatment was used. Then, 10 ? of 5 mg/ml MTT solution was added and cultured in a 37° C. CO2 incubator for 4 hours to stain the cells. After removing the medium, the cells were treated with 100 μl of DMSO and shaken for 10 minutes, and the number of HHFDPC cells was confirmed by measuring absorbance at a wavelength of 540 nm using a spectrophotometer.

The next assay concerns cyclin D1. Kind of assay: RT-PCR of cyclin D1 expression in HHFDPC. The settings on record: peptide 500 nM, 5 μM, and 50 µM, 24 hours, vs control group without any treatment, FIG. 4. In kind it is cell-based, human. The method, then:
(§2) Furthermore, in order to determine whether the β-catenin moves to the nucleus and is activated to affect proliferation and differentiation, whether the expression of LEF-1, c-Myc and cyclin D1 (cyclin D1), which act as downstream factors, increases with β-catenin activation was confirmed through RT-PCR. Specifically, in the same manner as the previous Western blotting experiment, HHFDPC cells were cultured, treated with the peptides prepared in the Preparation Example of the present invention at concentrations of 500 nM, 5 μM, and 50 µM, respectively, and cultured at 37° C. for 24 hours. After washing the cells with PBS, RNA was isolated by treating them with 300 […] of easy blue (intron, Korea). Then, CDNA was synthesized using a cDNA synthesis kit (enzynomics, Korea) by quantifying it with nano drop, and PCR was performed using primers for LEF-1, c-Myc and cyclin D1 (sequences of the primers are listed in Table 2 below) and PCR premix (enzynomics, Korea). Electrophoresis was performed on a 1.5% agarose gel, and then the mRNA of LEF-1, c-Myc and cyclin D1 was detected using a band analysis system (Bio-Rad gel image system).

The test system of another assay is LEF-1. Kind of assay: RT-PCR of LEF-1 expression in HHFDPC. Format: cell-based, human. The note with it: peptide 500 nM, 5 μM, and 50 µM, 24 hours, vs control group without any treatment, FIG. 4. The method, then:
as §2

Another assay concerns p-ERK. Description: Western blotting of phosphorylated ERK in HHFDPC. Format: cell-based, human. The note with it: peptide 500 nM, 5 μM, and 50 μM, 24 hours, vs control group not treated, FIG. 2. How it is done: (§3) First, phosphorylated forms of AKT and ERK, which act as signaling molecules related to the proliferation of HHFDPC, were confirmed through Western blotting. Specifically, HHFDPC as in [Experiment Example 1-1] above was seeded at 4×10^5 cells/well in a 6-well culture plate, cultured in MSC complete medium (mesenchymal stem cell complete media) for 24 hours, and then the medium was replaced with serum free MSC complete medium and cultured for another 24 hours. Then, the HHFDPC was treated with the peptide of SEQ ID NO: 1 prepared in the Preparation Example at concentrations of 500 nM, 5 μM, and 50 μM, respectively, and cultured at 37° C. for 24 hours. As a positive control, minoxidil was treated at a concentration of 1 μM, and as a negative control, HHFDPC without any treatment was used. Then, Western blotting was performed to detect phosphorylated AKT and phosphorylated ERK. After washing with PBS, the cells were treated with 100 ? of lysis buffer to destroy cells, thereby obtaining cell lysate. After electrophoresis using a 10% SDS-PAGE gel, it was transferred to a PVDF membrane and blocked using 5% skim milk at room temperature for 30 minutes. […] After washing again with 0.1% PBS-T (0.1% Tween-20 in PBS) three times for 15 minutes each, p-AKT and p-ERK were detected by treatment with ECL solution (GE Healthcare, USA).

In another assay the test system is c-Myc. Description: RT-PCR of c-Myc expression in HHFDPC. In kind it is cell-based, human. The settings on record: peptide 500 nM, 5 μM, and 50 µM, 24 hours, vs control group without any treatment, FIG. 4. How it is done:
as §2

For another assay, the system named is β-catenin. Kind of assay: Western blotting of β-catenin moved to the nucleus in HHFDPC. Format: cell-based, human. The settings on record: HHFDPC nuclear proteins, peptide 500 nM, 5 µM, and 50 μM, 24 hours, vs control group not treated, FIG. 3. The method, then:
In addition, in addition to p-AKT and p-ERK, in order to confirm the activation of β-catenin, which is known to affect cell proliferation and differentiation, whether β-catenin moved into the nucleus was confirmed through Western blotting. Specifically, the HHFDPC as in [Experiment Example 1-1] was seeded in a 6-well culture plate at an amount of 4×10^5 cells/well, cultured in MSC complete medium (mesenchymal stem cell complete media) for 24 hours. Next, the medium was replaced with serum free MSC complete medium and cultured again for 24 hours. Then, the HHFDPC was treated with the peptide of SEQ ID NO: 1 prepared in the Preparation Example at concentrations of 500 nM, […], and 50 μM, respectively, and cultured at 37° C. for 24 hours. As a positive control, minoxidil was treated at a concentration of 1 μM, and as a negative control, HHFDPC without any treatment was used. After washing with PBS, proteins in the nucleus were isolated using a nuclear protein extraction kit (Thermo scientific, USA). After electrophoresis using a 10% SDS-PAGE gel, it was transferred to a PVDF membrane and blocked using 5% skim milk at room temperature for 30 minutes. […] After washing again with 0.1% PBS-T (0.1% Tween-20 in PBS) three times for 15 minutes each, β-catenin was detected by treatment with ECL solution (GE Healthcare, USA).

The test system of a further assay is p-AKT. Description: Western blotting of phosphorylated AKT in HHFDPC. Format: cell-based, human. The note with it: peptide 500 nM, 5 μM, and 50 μM, 24 hours, vs control group not treated, FIG. 2. How it is done:
as §3

The next assay has as its system MSX2. Kind of assay: RT-PCR of MSX2 expression in HHGMC. The note with it: peptide 500 nM, 5 μM, and 50 μM, 72 hours, vs untreated control group, FIG. 7. Format: cell-based, human. How it is done:
Specifically, HHGMC (human hair germinal matrix cell, Sciencell, USA) was seeded in a 6-well culture plate at 4×10^5 cells/well and then cultured in MSC complete medium (mesenchymal stem cell complete media) for 24 hours. Next, the medium was replaced with serum free MSC complete medium and cultured again for 24 hours. Then, the HHGMC was treated with the peptide of SEQ ID NO: 1 prepared in the Preparation Example at concentrations of 500 nM, 5 μM, and 50 μM, respectively, and cultured at 37° C. for 72 hours. As a positive control, EGF was treated at a concentration of 50 nM, and as a negative control, HHGMC without any treatment was used. After washing with PBS, RNA was isolated by treating with 300 ? of easy blue (intron, Korea). Next, cDNA was synthesized using a cDNA synthesis kit (enzynomics, Korea) by quantification using nano drop, and PCR was performed using primers for MSX2 (base sequences of the primers are listed in Table 4 below) and PCR premix (enzynomics, Korea). Electrophoresis was performed on a 1.5% agarose gel, and MSX2 mRNA was detected using a band analysis system (Bio-Rad gel image system).

For another assay, the system named is Keratin 19. Kind of assay: RT-PCR of Keratin 19 expression in HHORSC. Format: cell-based, human. The note with it: peptide 500 nM, 5 μM, and 50 μM, 72 hours, vs control group without treatment, FIG. 6. How it is done: as §1

Turning to “KLQEHLDM [peptide of the present invention]”, the “amount of Keratin 14 mRNA” value with Keratin 14 is “the amount of mRNA increased further compared to the control group”. For the same sequence, the “amount of DKK-1 protein” value with DKK-1 protein is listed as “the amount of DKK-1 protein was found to be reduced”. The “proliferation of HHFDPC (absorbance, MTT)” value in [1] was “proliferation of HHFDPC was promoted depending on the concentration of the treated peptide”. The “amount of cyclin D1 mRNA” value with cyclin D1 was “the amount of mRNA increased further compared to the control group”. For the same sequence, the “amount of LEF-1 mRNA” value in the assay with LEF-1 is on record as “the amount of mRNA increased further compared to the control group”. In the assay with p-ERK, the “phosphorylation of ERK (p-ERK)” value is on record as “phosphorylation was found to be increased compared to the control group”. Besides, the “amount of c-Myc mRNA” value in the assay on c-Myc is on record as “the amount of mRNA increased further compared to the control group”. In the assay with β-catenin, the “β-catenin moved to the nucleus (activation of β-catenin)” value was “migration due to activation of β-catenin increased”. For the same sequence, the “phosphorylation of AKT (p-AKT)” value in the assay with p-AKT is “phosphorylation was found to be increased compared to the control group”. In addition, in the assay with MSX2, the “amount of MSX2 mRNA” value is listed as “the amount of mRNA increased further compared to the untreated control group”. Moreover, the “amount of Keratin 19 mRNA” value in the assay on Keratin 19 was “the amount of mRNA increased further compared to the control group”.
